{"source": "patent EP0108147B1", "about": "“Use of a protoberberine alkaloid and composition containing same” (MAROKO, Peter R., priority 1982, dated 1983)", "key": {"dog": {"system": "dog", "assay": "Protocol M simile: high or repetitive infusions in single dogs", "format": "in vivo", "method": "It is noted that the dP/dt increased by 350% after the eighth dose and dF/dt by 450%.\nIn one dog using protocol M simile, 240 mg/Kg of berberine HCI was administered and dP/dt increased by 75%, aortic flow by 67%, heart rate fell from 150 to 114 beats/min., diastolic aortic pressure fell from 92 to 67 mmHg, and left atrial pressure fell from 8.5 to 7.5 mmHg.\nWhen this type of experiment was repeated with tetrahydropalmatine, a first dose of 3.5 mg/Kg was given without maintaining the pressure constant and arterial pressure fell from 142/115 to 118/90 mmHg. When the second infusion was given with constant pressure, dP/dt increased by 17%."}, "dogs [1]": {"system": "dogs", "assay": "Three week toxicology study in 12 dogs", "format": "in vivo", "conditions": "0.2 mg/kg/min for 60 minutes twice daily for 3 weeks"}, "closed-chest dogs": {"system": "closed-chest dogs", "assay": "Protocol TE: electrophysiologic properties in closed-chest dogs", "format": "in vivo", "conditions": "for result when substituted in the electrophysiologic experiments: dog, in vivo", "method": "Experiments were carried out to analyze the electrophysiologic properties of berberine (portocol TE). In this protocol closed-chest dogs were anesthetized with intravenous pentobarbital (30 mg/Kg). Electrode catheters were placed, under fluoroscopy, in the high right atrium, right venticle, and in the aorta near the non-coronary aortic cusp to record His bundle potential. In addition aortic pressure (Statham gauge) and surface ECG were obtained. All parameters were recorded on an Electronic for Medicine polygraph (Model DR 8), with a paper speed of 100 mm/sec. The recordings were obtained before berberine treatment and after five successive five minute infusions of 0.2 mg/Kg/min of berberine in each one of the dogs. At each one of these time intervals recordings were done with the \"spontaneous\" normal sinus rhythm and with atrial and ventricular extrastimuli were given during the normal sinus as well as during the pacing phases of the experiment to determine the refractory period of the artria, atrio-ventricular node and of the His-Purkinje system and ventricle. Moreover, sinus node recovery time was measured."}, "dogs [2]": {"system": "dogs", "assay": "Arrhythmias produced by intravenous infusion of aconitine", "format": "in vivo", "method": "To examine the effects of berberine on arrhythmias produced by intravenous infusion of aconitine in fifteen dogs after development of VEA, of at least 50% of the beats or more, the dogs were given berberine intravenously as a bolus (1-5 mg/Kg) or 5% dextrose in water."}, "[3]": {"system": "patients with heart failure", "assay": "Intravenous berberine in patients with heart failure, catheterization laboratory", "format": "in vivo", "method": "Berberine HCI was used in patients with heart failure. […] The observations were done in a catheterization laboratory. […] Heart rate decreased in two patients and increased in one. On the average it decreased from 82 to 76 beats/min after 0.02 mg/kg/min and to 79 after 0.2 mg/kg/min. […] It is very impressive that in one patient it fell from 21 to 11 and then to 9 mmHg. Aortic systolic pressure fell from 115 mmHg to 104 and then to 108 mmHg. Aortic diastolic pressure fell from 78 to 68 and then to 67 mmHg. Aortic mean pressure fell from 93 to 80 to 84 mmHg. This is a mild fall in mean aortic pressure. […] These are very marked increases in cardiac output and cardiac index. […] These increases are again very remarkable. […] Thus, the 5 last […] indicated the profound aemelioration in ventricular performance. […] Contractility was evaluated by the indices LV-V max (left ventricular maximal shortening velocity of the contractile element) and LV-VPM (left ventricular peak measured shortening velocoty of the contracile elements)."}, "[4]": {"system": "dogs with acute left ventricular failure", "assay": "MUGR ejection fraction in dogs with acute left ventricular failure after coronary embolization", "format": "in vivo", "conditions": "another dog, 0.2 mg/Kg/min"}, "dogs [5]": {"system": "dogs", "assay": "Lethal dose, repetitive intravenous boluses", "conditions": "repetitive intravenous boluses within 4 hours"}, "[6]": {"conditions": "one dog, after the eighth dose, 0.7 mg/kg/min repeated up to 56 mg/Kg"}, "[7]": {"conditions": "five successive five minute infusions of 0.2 mg/Kg/min"}}, "data": [{"smiles": "COc1ccc2cc3[n+](cc2c1OC)CCc1cc2c(cc1-3)OCO2", "note": "[berberine]", "values": [{"measurement": "arrhythmias", "setting": "dog; one dog, 240 mg/Kg", "result": "No arrhythmias were noted"}, {"measurement": "increase of aortic flow", "setting": "dog; one dog, 240 mg/Kg", "result": 67, "unit": "%"}, {"measurement": "increase of dP/dt", "setting": "dog; one dog, 240 mg/Kg", "result": 75, "unit": "%"}, {"measurement": "left atrial pressure", "setting": "dog; one dog, 240 mg/Kg, from 8.5", "result": 7.5, "unit": "mmHg"}, {"measurement": "diastolic aortic pressure", "setting": "dog; one dog, 240 mg/Kg, from 92", "result": 67, "unit": "mmHg"}, {"measurement": "heart rate", "setting": "dog; one dog, 240 mg/Kg, from 150", "result": 114, "unit": "beats/min"}, {"measurement": "increase of dF/dt", "setting": "dog; [6]", "result": 450, "unit": "%"}, {"measurement": "increase of dP/dt", "setting": "dog; [6]", "result": 350, "unit": "%"}, {"measurement": "arrhythmias", "setting": "dog; one dog, up to 56 mg/Kg", "result": "No arrhythmias were observed"}, {"measurement": "side effects (electrolytes, heptatic function, renal function, proteins, coagulation, blood cells, platelet count)", "setting": "dogs [1]", "result": "no side effects were observed"}, {"measurement": "tissues at post-mortem", "setting": "dogs [1]", "result": "normal histologically"}, {"measurement": "A-H, H-V and QRS intervals", "setting": "closed-chest dogs; [7]", "result": "did not change"}, {"measurement": "Sinus node recovery", "setting": "closed-chest dogs; [7]", "result": "did not change"}, {"measurement": "artrial refractory period", "setting": "closed-chest dogs; [7]", "result": "did not change"}, {"measurement": "change of QTc", "setting": "closed-chest dogs; [7]", "result": 13, "unit": "%"}, {"measurement": "decrease of heart rate", "setting": "closed-chest dogs; [7]", "result": 8, "unit": "%"}, {"measurement": "increase of ventricular effective refractory period", "setting": "closed-chest dogs; [7]", "result": 11, "unit": "%"}, {"measurement": "dogs with regression of the arrhythmias to normal sinus or supraventricular rhythm", "setting": "dogs [2]; intravenous bolus 1-5 mg/Kg after VEA of at least 50% of the beats, controls 20%", "result": 78, "unit": "%"}, {"measurement": "ventricular fibrillation", "setting": "dogs [2]; two cases", "result": "ventricular fibrillation reverted to normal sinus rhythm"}, {"measurement": "side effects", "setting": "[3]; 0.002 mg/kg/min 30 minutes then 0.02 mg/kg/min 30 minutes, 3 patients", "result": "without untoward side effects"}, {"measurement": "side effects", "setting": "[3]; 0.2 mg/kg/min, one patient", "result": "without untoward side effects"}, {"measurement": "side effects", "setting": "[3]; 3 patients with cardiomyopathy, 0.02 then 0.2 mg/kg/min, 15 minutes each", "result": "None of the patients had side effects"}, {"measurement": "cardiac index", "setting": "[3]; after 0.02 mg/kg/min, from 2.9", "result": 3.7, "unit": "fiters/min/m^2"}, {"measurement": "cardiac output", "setting": "[3]; after 0.02 mg/kg/min, from 5.1", "result": 6.6, "unit": "L/min"}, {"measurement": "Left ventricular end diastolic pressure", "setting": "[3]; after 0.02 mg/kg/min, from 22", "result": 16, "unit": "mmHg"}, {"measurement": "ejection fraction", "setting": "[3]; after 0.02 mg/kg/min, from 32", "result": 36, "unit": "%"}, {"measurement": "stroke index", "setting": "[3]; after 0.02 mg/kg/min, from 36", "result": 50, "unit": "ml/m^2"}, {"measurement": "Stroke volume", "setting": "[3]; after 0.02 mg/kg/min, from 62", "result": 89, "unit": "mL"}, {"measurement": "Aortic diastolic pressure", "setting": "[3]; after 0.02 mg/kg/min, from 78", "result": 68, "unit": "mmHg"}, {"measurement": "Heart rate, average", "setting": "[3]; after 0.02 mg/kg/min, from 82", "result": 76, "unit": "beats/min"}, {"measurement": "Aortic mean pressure", "setting": "[3]; after 0.02 mg/kg/min, from 93", "result": 80, "unit": "mmHg"}, {"measurement": "Aortic systolic pressure", "setting": "[3]; after 0.02 mg/kg/min, from 115", "result": 104, "unit": "mmHg"}, {"measurement": "Left ventricular systolic pressure", "setting": "[3]; after 0.02 mg/kg/min, from 116", "result": 106, "unit": "mmHg"}, {"measurement": "Calculated systemic peripheral resistance", "setting": "[3]; after 0.02 mg/kg/min, from 1339", "result": "883 10^-5N·S·cm^-5"}, {"measurement": "Aortic diastolic pressure", "setting": "[3]; after 0.2 mg/kg/min", "result": 67, "unit": "mmHg"}, {"measurement": "Aortic mean pressure", "setting": "[3]; after 0.2 mg/kg/min", "result": 84, "unit": "mmHg"}, {"measurement": "Aortic systolic pressure", "setting": "[3]; after 0.2 mg/kg/min", "result": 108, "unit": "mmHg"}, {"measurement": "Calculated systemic peripheral resistance", "setting": "[3]; after 0.2 mg/kg/min", "result": "794 10^-5N·S·cm^-5"}, {"measurement": "Heart rate, average", "setting": "[3]; after 0.2 mg/kg/min", "result": 79, "unit": "beats/min"}, {"measurement": "Left ventricular end diastolic pressure", "setting": "[3]; after 0.2 mg/kg/min", "result": 15, "unit": "mmHg"}, {"measurement": "Left ventricular systolic pressure", "setting": "[3]; after 0.2 mg/kg/min", "result": 110, "unit": "mmHg"}, {"measurement": "Stroke volume", "setting": "[3]; after 0.2 mg/kg/min", "result": 102, "unit": "mL"}, {"measurement": "cardiac index", "setting": "[3]; after 0.2 mg/kg/min", "result": 4.2, "unit": "fiters/min/m^2"}, {"measurement": "cardiac output", "setting": "[3]; after 0.2 mg/kg/min", "result": 7.4, "unit": "L/min"}, {"measurement": "ejection fraction", "setting": "[3]; after 0.2 mg/kg/min", "result": 40, "unit": "%"}, {"measurement": "stroke index", "setting": "[3]; after 0.2 mg/kg/min", "result": 58, "unit": "ml/m^2"}, {"measurement": "LV-VPM (left ventricular peak measured shortening velocoty of the contracile elements)", "setting": "[3]; after berberine, from 0.7", "result": 0.9}, {"measurement": "LV-V max (left ventricular maximal shortening velocity of the contractile element)", "setting": "[3]; after berberine, from 0.9", "result": 1.1}, {"measurement": "Left ventricular end diastolic pressure", "setting": "[3]; one patient, after 0.02 mg/kg/min, from 21", "result": 11, "unit": "mmHg"}, {"measurement": "Left ventricular end diastolic pressure", "setting": "[3]; one patient, after 0.2 mg/kg/min", "result": 9, "unit": "mmHg"}, {"measurement": "EF", "setting": "[4]; at 20", "result": 55, "unit": "%"}, {"measurement": "EF", "setting": "[4]; at 30", "result": 55, "unit": "%"}, {"measurement": "average dose resulting in death due to arterial systemic hypotension", "setting": "dogs [5]", "result": 120, "unit": "mg/kg"}]}, {"smiles": "COc1cc2c(cc1O)C[C@H]1c3cc(O)c(OC)cc3CCN1C2", "note": "[coreximine]", "values": [{"measurement": "result when the experiments are repeated", "setting": "dog; dog, in vivo", "result": "comparable results are obtained"}, {"measurement": "result when substituted in the electrophysiologic experiments", "setting": "closed-chest dogs", "result": "comparable results are shown"}]}, {"smiles": "COc1ccc2cc3[n+](cc2c1O)CCc1cc2c(cc1-3)OCO2", "note": "[berberrubine]", "values": [{"measurement": "result when substituted in the electrophysiologic experiments", "setting": "closed-chest dogs", "result": "likewise"}]}]}
